“And” between values parts separate entries of the source, which are not always exact repeats. Identical values can stand only once. Counter-ions that a name gives are not always drawn.
Experiment: Example 2 iris, retina, choroid and cornea tissue concentrations
Assay type: in vivo, male New Zealand White rabbits
Details: for Average / Conc. (ng/g) OD / Conc. (ng/g) OS / Conc. (ng/mL) OD / Conc. (ng/mL) OS: sodium salt; for Average Peak Concentration, Choroid / Average Peak Concentration, Cornea / Average Peak Concentration, Iris / Average Peak Concentration, Retina: solution
Procedure: To measure the concentration of Compound 1 in plasma and ocular tissues following topical ocular, subcutaneous, and intravitreal administration, New Zealand White rabbits were administered Compound 1, and plasma and ocular samples were collected at pre-determined time points. Compound 1 formulations were prepared fresh on each day of dosing.
Ocular tissue samples from both eyes of each animal were collected and weights were recorded. Plasma and ocular tissue sample concentrations of Compound 1 were determined by LC-MS/MS.
Animals were anesthetized for ocular (topical) and intravitreal dosing following the 12IA7 IACUC protocol. Each rabbit received a bolus dose of test formulation either via topical ocular administration 3 times daily on Days 1 and 2 (at 0, 6, and 12 hours), and once on Day 3 (at 0 hours) into both eyes; via intravitreal administration into both eyes once on Day 1 (at 0 hours); or via subcutaneous administration 2 times daily on Days 1 and 2 (at 0 and 8 hours) and once daily on Day 3 (at 0 hours). Doses were given within an approximately 1 hour window each day where applicable.
On Day 1, for intravitreal administration, or on Day 3, for topical ocular and subcutaneous administration, at the appropriate ocular tissue collection time points, animals were euthanized and both eyes were enucleated immediately. Following enucleation, each eye was rinsed with phosphate-buffered saline. Ocular tissue samples from both eyes of each animal were collected at predetermined time points and weights were recorded. All the samples were frozen immediately on dry ice, and stored at −60° C. to −80° C. pending bioanalysis.
An LC-MS/MS method was developed for the determination of Compound 1 in rabbit aqueous tissues (plasma, aqueous and vitreous humor) and solid ocular tissue samples. A pre-study standard curve was analyzed to determine the specificity, range, and lower limit of quantitation of the method. Plasma and tissue homogenate study samples were extracted and analyzed. All the samples were treated identically to the standards.
One eight-point standard curve was used in each analytical batch. To be accepted, each batch must have had at least five of eight standards with accuracy within ±20% of nominal, except at the lower limit of quantification (LLOQ), where ±25% was acceptable.

[1] = Choroid, 0.5 hr, subcutaneous 5 mg/kg/dose (Group 2)
[2] = Choroid, 1 hr, subcutaneous 5 mg/kg/dose (Group 2)
[3] = Choroid, 1 hr, topical ocular 1.2 mg/eye (Group 1)
[4] = Choroid, 2 hr, topical ocular 1.2 mg/eye (Group 1)
[5] = Choroid, 4 hr, subcutaneous 5 mg/kg/dose (Group 2)
[6] = Choroid, 4 hr, topical ocular 1.2 mg/eye (Group 1)
[7] = Cornea, 0.5 hr, subcutaneous 5 mg/kg/dose (Group 2)
[8] = Cornea, 0.5 hr, topical ocular 1.2 mg/eye (Group 1)
[9] = Cornea, 1 hr, subcutaneous 5 mg/kg/dose (Group 2)
[10] = Cornea, 1 hr, topical ocular 1.2 mg/eye (Group 1)
[11] = Cornea, 2 hr, subcutaneous 5 mg/kg/dose (Group 2)
[12] = Cornea, 4 hr, subcutaneous 5 mg/kg/dose (Group 2)
[13] = Cornea, 4 hr, topical ocular 1.2 mg/eye (Group 1)
[14] = Group 1: topical ocular 0.70 mg/kg/dose
[15] = Group 2: subcutaneous 5 mg/kg/dose
[16] = Group 4: intravitreal 1.55 mg/kg/dose
[17] = Iris, 0.5 hr, subcutaneous 5 mg/kg/dose (Group 2)
[18] = Iris, 0.5 hr, topical ocular 1.2 mg/eye (Group 1)
[19] = Iris, 1 hr, subcutaneous 5 mg/kg/dose (Group 2)
[20] = Iris, 4 hr, subcutaneous 5 mg/kg/dose (Group 2)
[21] = Iris, 4 hr, topical ocular 1.2 mg/eye (Group 1)
[22] = Retina, 0.5 hr, subcutaneous 5 mg/kg/dose (Group 2)
[23] = Retina, 0.5 hr, topical ocular 1.2 mg/eye (Group 1)
[24] = Retina, 1 hr, subcutaneous 5 mg/kg/dose (Group 2)
[25] = Retina, 1 hr, topical ocular 1.2 mg/eye (Group 1)
[26] = Retina, 2 hr, subcutaneous 5 mg/kg/dose (Group 2)
[27] = Retina, 4 hr, subcutaneous 5 mg/kg/dose (Group 2)
[28] = Retina, 4 hr, topical ocular 1.2 mg/eye (Group 1)

COC(=O)N[C@@H](Cc1ccccc1)C(=O)N[C@@H](Cc1ccc(NS(=O)(=O)O)cc1)c1csc(-c2cccs2)n1 [Compound 1 sodium salt]
Average [1]: 266 ng/g | Conc. (ng/g) OD [1]: 264 ng/g and 282 ng/g | Conc. (ng/g) OS [1]: 282 ng/g and 235 ng/g | Conc. (ng/mL) OD [1]: 24.0 ng/mL and 25.6 ng/mL | Conc. (ng/mL) OS [1]: 25.6 ng/mL and 21.4 ng/mL | Average (Choroid, 0.5 hr, topical ocular 1.2 mg/eye (Group 1)): 57.7 ng/g | Average [2]: 200 ng/g | Conc. (ng/g) OD [2]: 320 ng/g and 211 ng/g | Conc. (ng/g) OS [2]: 144 ng/g and 125 ng/g | Conc. (ng/mL) OD [2]: 29.1 ng/mL and 19.2 ng/mL | Conc. (ng/mL) OS [2]: 13.1 ng/mL and 11.4 ng/mL | Average [3]: 32.2 ng/g | Conc. (ng/g) OD [3]: 61.2 ng/g and 31.8 ng/g | Conc. (ng/g) OS [3]: 16.5 ng/g and 19.5 ng/g | Conc. (ng/mL) OD [3]: 5.56 ng/mL and 2.89 ng/mL | Conc. (ng/mL) OS [3]: 1.50 ng/mL and 1.77 ng/mL | Average (Choroid, 2 hr, subcutaneous 5 mg/kg/dose (Group 2)): 68.8 ng/g | Average [4]: 59.2 ng/g | Conc. (ng/g) OS [4]: 43.9 ng/g and 64.5 ng/g | Conc. (ng/mL) OS [4]: 3.99 ng/mL and 5.86 ng/mL | Average [5]: 15.5 ng/g | Conc. (ng/g) OD [5]: 18.7 ng/g and 16.5 ng/g | Conc. (ng/g) OS [5]: 13.4 ng/g | Conc. (ng/mL) OD [5]: 1.70 ng/mL and 1.50 ng/mL | Conc. (ng/mL) OS [5]: 1.22 ng/mL | Average [6]: 165 ng/g | Conc. (ng/g) OD [6]: 27.8 ng/g and 52.1 ng/g | Conc. (ng/g) OS [6]: 81.1 ng/g | Conc. (ng/mL) OD [6]: 2.53 ng/mL and 4.74 ng/mL | Average [7]: 19.4 ng/g | Conc. (ng/g) OS [7]: 27.1 ng/g and 21.3 ng/g | Conc. (ng/mL) OS [7]: 2.46 ng/mL and 1.94 ng/mL | Average [8]: 1015 ng/g | Conc. (ng/g) OD [8]: 240 ng/g and 370 ng/g | Conc. (ng/g) OS [8]: 427 ng/g | Conc. (ng/mL) OD [8]: 21.8 ng/mL and 33.6 ng/mL | Average [9]: 31.1 ng/g | Conc. (ng/g) OD [9]: 26.1 ng/g and 23.4 ng/g | Conc. (ng/g) OS [9]: 25.3 ng/g | Conc. (ng/mL) OD [9]: 2.37 ng/mL and 2.13 ng/mL | Conc. (ng/mL) OS [9]: 4.52 ng/mL and 2.30 ng/mL | Average [10]: 548 ng/g | Conc. (ng/g) OS [10]: 482 ng/g and 532 ng/g | Conc. (ng/mL) OS [10]: 43.8 ng/mL and 48.4 ng/mL | Average [11]: 9.45 ng/g | Conc. (ng/g) OD [11]: 11.7 ng/g | Conc. (ng/g) OS [11]: 11.0 ng/g | Average (Cornea, 2 hr, topical ocular 1.2 mg/eye (Group 1)): 1073 ng/g | Average [12]: 10.1 ng/g | Conc. (ng/g) OD [12]: 8.27 ng/g and 9.60 ng/g | Conc. (ng/g) OS [12]: 8.62 ng/g and 13.9 ng/g | Conc. (ng/mL) OD [12]: 0.752 ng/mL and 0.873 ng/mL | Conc. (ng/mL) OS [12]: 0.784 ng/mL and 1.26 ng/mL | Average [13]: 534 ng/g | Conc. (ng/g) OD [13]: 493 ng/g and 362 ng/g | Conc. (ng/mL) OD [13]: 44.8 ng/mL and 32.9 ng/mL | Average Peak Concentration, Choroid [14]: 57.7 ng/g | Average Peak Concentration, Cornea [14]: 1015 ng/g | Average Peak Concentration, Iris [14]: 24.3 ng/g | Average Peak Concentration, Retina [14]: 25.6 ng/g | Average Peak Concentration, Choroid [15]: 266 ng/g | Average Peak Concentration, Cornea [15]: 19.4 ng/g | Average Peak Concentration, Iris [15]: 459 ng/g | Average Peak Concentration, Retina [15]: 40.5 ng/g | Average Peak Concentration, Choroid [16]: 947375 ng/g | Average Peak Concentration, Cornea [16]: 71445 ng/g | Average Peak Concentration, Iris [16]: 351725 ng/g | Average Peak Concentration, Retina [16]: 774400 ng/g | Average [17]: 459 ng/g | Conc. (ng/g) OD [17]: 305 ng/g and 454 ng/g | Conc. (ng/mL) OD [17]: 27.7 ng/mL and 41.3 ng/mL | Average [18]: 24.3 ng/g | Conc. (ng/g) OD [18]: 28.1 ng/g and 18.7 ng/g | Conc. (ng/g) OS [18]: 17.8 ng/g and 32.5 ng/g | Conc. (ng/mL) OD [18]: 2.55 ng/mL and 1.7 ng/mL | Conc. (ng/mL) OS [18]: 1.62 ng/mL and 2.95 ng/mL | Average [19]: 94.7 ng/g | Conc. (ng/g) OD [19]: 125 ng/g and 99.2 ng/g | Conc. (ng/g) OS [19]: 97.6 ng/g and 56.4 ng/g | Conc. (ng/mL) OD [19]: 11.4 ng/mL and 9.02 ng/mL | Conc. (ng/mL) OS [19]: 8.87 ng/mL and 5.13 ng/mL | Average (Iris, 1 hr, topical ocular 1.2 mg/eye (Group 1)): 55.2 ng/g | Average (Iris, 2 hr, subcutaneous 5 mg/kg/dose (Group 2)): 29.7 ng/g | Average (Iris, 2 hr, topical ocular 1.2 mg/eye (Group 1)): 51.9 ng/g | Average [20]: 30.4 ng/g | Conc. (ng/g) OD [20]: 33.8 ng/g | Conc. (ng/g) OS [20]: 34.1 ng/g | Conc. (ng/mL) OD [20]: 2.12 ng/mL and 3.07 ng/mL | Average [21]: 261 ng/g | Conc. (ng/g) OD [21]: 32.7 ng/g and 27.9 ng/g | Conc. (ng/g) OS [21]: 30.7 ng/g | Conc. (ng/mL) OD [21]: 2.97 ng/mL and 2.54 ng/mL | Average [22]: 40.5 ng/g | Conc. (ng/g) OD [22]: 30.5 ng/g and 34.9 ng/g | Conc. (ng/g) OS [22]: 48.0 ng/g and 48.7 ng/g | Conc. (ng/mL) OD [22]: 2.77 ng/mL and 3.17 ng/mL | Conc. (ng/mL) OS [22]: 4.36 ng/mL and 4.43 ng/mL | Average [23]: 25.6 ng/g | Conc. (ng/g) OS [23]: 33.7 ng/g and 33.1 ng/g | Conc. (ng/mL) OS [23]: 3.06 ng/mL and 3.01 ng/mL | Average [24]: 32.6 ng/g | Conc. (ng/g) OD [24]: 22.4 ng/g and 18.3 ng/g | Conc. (ng/g) OS [24]: 43.2 ng/g and 46.4 ng/g | Conc. (ng/mL) OD [24]: 2.04 ng/mL and 1.66 ng/mL | Conc. (ng/mL) OS [24]: 3.93 ng/mL and 4.22 ng/mL | Average [25]: 59.2 ng/g | Conc. (ng/g) OD [25]: 76.9 ng/g and 85.9 ng/g | Conc. (ng/mL) OD [25]: 6.99 ng/mL and 7.81 ng/mL | Average [26]: 16.4 ng/g | Conc. (ng/g) OD [26]: 15.0 ng/g | Conc. (ng/g) OS [26]: 17.8 ng/g | Average (Retina, 2 hr, topical ocular 1.2 mg/eye (Group 1)): 48.3 ng/g | Average [27]: 19.7 ng/g | Conc. (ng/g) OD [27]: 19.7 ng/g | Conc. (ng/mL) OS [27]: BLOQ | Average [28]: 405 ng/g | Conc. (ng/g) OS [28]: 64.8 ng/g | Choroid Conc. OS (choroid homogenate, 6.0 hr, left eye, individual animals, intravitreal 2.5 mg/eye (~1.55 mg/kg), Group 4): 105000 ng/mL and 44000 ng/mL | Choroid Conc. OD (choroid homogenate, 6.0 hr, right eye, individual animals, intravitreal 2.5 mg/eye (~1.55 mg/kg), Group 4): 164000 ng/mL and 31500 ng/mL
